The text below walks through data of US12139472B2, “Inhibitors of advanced glycation end products” (priority 2019, dated 2024).

Common to all, as to assay type: in vitro ADME
For one data set, the target named is T1, CYP1A (Homo sapiens, UniProt P05177).
T1 construct: Two studies were conducted in human liver microsomes (HLM); tissue Eurofins G232 panel; host or cells: human liver microsomes
T1 sequence (P05177 1-516): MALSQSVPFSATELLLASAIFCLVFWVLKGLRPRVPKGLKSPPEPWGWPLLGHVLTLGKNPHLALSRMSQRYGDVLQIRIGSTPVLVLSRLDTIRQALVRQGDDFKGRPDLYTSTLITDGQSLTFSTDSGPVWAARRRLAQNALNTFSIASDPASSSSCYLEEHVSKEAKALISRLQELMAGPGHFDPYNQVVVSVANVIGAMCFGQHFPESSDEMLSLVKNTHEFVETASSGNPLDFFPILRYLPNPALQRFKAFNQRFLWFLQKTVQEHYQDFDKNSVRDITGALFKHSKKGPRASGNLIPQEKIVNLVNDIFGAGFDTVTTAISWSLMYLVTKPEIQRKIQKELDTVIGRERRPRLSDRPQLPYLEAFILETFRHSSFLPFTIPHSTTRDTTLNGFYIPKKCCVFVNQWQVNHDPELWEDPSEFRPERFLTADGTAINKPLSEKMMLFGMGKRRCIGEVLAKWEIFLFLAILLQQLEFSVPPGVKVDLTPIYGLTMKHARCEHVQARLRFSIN
Kind of data set: CYP1A inhibition (HLM) phenacetin. As for the experimental part: (§1) Compound 5 (PTG-630 free base) and 7 additional compounds for CYP3A P450 inhibition.
(§2) Two studies were conducted in human liver microsomes (HLM). Lead candidate PTG-630 was tested using the Eurofins G232 panel (Drug Metab Dispos. 2001 January; 29(1):23-9), where inhibition was measured against seven CYP enzymes; CYP3A4 was tested using two different substrates, midazolam and testosterone. In a second study, inhibition of CYP3A4 (midazolam substrate only) was compared for 8 compounds of interest. The test protocol involved one-point measurements in duplicate, where inhibition was measured at a fixed 10 μM concentration of candidate inhibitors. In all cases, the substrate for each CYP enzyme was at a concentration equal to its specific Km value that was independently obtained from an 8-point dose-response study. Based on the observed value for percent inhibition for each test compound, we calculated of an IC50 assuming a competitive mode of inhibition. If percent inhibition for an inhibitor at a concentration of [I] is denoted by P, then: IC50=[I]*(100−P)/P In the single-point assay, [I] is 10 μM. If measured inhibition is 10%, then IC50=10*(100-10)/10=90 μM. […] As discussed in Lin et al. (J Pharm Sci. 2007 September; 96(9):2485-93; doi: 10.1002/jps.20884), CYP inhibition is broadly interpreted as being “potent” if IC50<1 μM, “moderate” if 1 μM<IC50<10 μM, and “weak” if IC50>10 μM.

A further data set deals with T2, CYP2B6 (Homo sapiens, UniProt P20813).
T2 construct: Two studies were conducted in human liver microsomes (HLM); tissue Eurofins G232 panel; host or cells: human liver microsomes
T2 sequence (P20813 1-491): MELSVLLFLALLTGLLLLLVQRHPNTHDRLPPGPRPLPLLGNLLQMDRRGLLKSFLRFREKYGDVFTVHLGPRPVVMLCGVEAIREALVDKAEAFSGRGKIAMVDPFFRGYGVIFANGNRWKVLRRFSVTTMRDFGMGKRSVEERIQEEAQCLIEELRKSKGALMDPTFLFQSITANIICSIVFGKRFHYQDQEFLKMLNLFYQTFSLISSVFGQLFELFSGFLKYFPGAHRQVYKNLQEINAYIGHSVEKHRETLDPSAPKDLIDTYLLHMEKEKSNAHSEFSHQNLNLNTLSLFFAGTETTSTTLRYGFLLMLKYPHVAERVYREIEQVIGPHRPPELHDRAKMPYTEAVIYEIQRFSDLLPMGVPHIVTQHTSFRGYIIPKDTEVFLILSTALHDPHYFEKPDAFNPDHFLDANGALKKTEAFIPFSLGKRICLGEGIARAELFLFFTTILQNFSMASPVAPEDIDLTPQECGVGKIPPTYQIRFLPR
The note with it: microsomes. As for the experimental part: as §1, §2

In a further data set the target is T3, CYP2C8 (Homo sapiens, UniProt P10632).
T3 construct: Two studies were conducted in human liver microsomes (HLM); tissue Eurofins G232 panel; host or cells: human liver microsomes
T3 sequence (P10632 1-490): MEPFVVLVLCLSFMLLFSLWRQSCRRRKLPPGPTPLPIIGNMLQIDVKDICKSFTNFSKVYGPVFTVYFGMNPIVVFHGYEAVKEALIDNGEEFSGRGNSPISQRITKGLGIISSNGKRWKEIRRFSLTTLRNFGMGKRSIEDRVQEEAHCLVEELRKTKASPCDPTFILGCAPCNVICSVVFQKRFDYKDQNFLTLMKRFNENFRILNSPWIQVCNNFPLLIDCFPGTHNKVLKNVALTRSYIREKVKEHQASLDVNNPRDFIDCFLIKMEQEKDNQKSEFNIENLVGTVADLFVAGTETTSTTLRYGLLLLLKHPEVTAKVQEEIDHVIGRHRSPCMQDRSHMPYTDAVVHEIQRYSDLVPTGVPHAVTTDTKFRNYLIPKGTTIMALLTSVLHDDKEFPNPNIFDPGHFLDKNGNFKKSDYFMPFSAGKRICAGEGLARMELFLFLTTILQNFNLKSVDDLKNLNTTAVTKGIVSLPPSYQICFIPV
The following applies: microsomes. As to the method: as §1, §2

Another data set has as its target T4, CYP2C19 (Homo sapiens, UniProt P33261).
T4 construct: Two studies were conducted in human liver microsomes (HLM); tissue Eurofins G232 panel; host or cells: human liver microsomes
The experiment in a line: CYP2C19 inhibition (HLM), omeprazole. As for the experimental part:
as §1, §2

The next data set has as its target T5, CYP3A (Homo sapiens, UniProt P08684).
T5 construct: Two studies were conducted in human liver microsomes (HLM); tissue Eurofins G232 panel; host or cells: human liver microsomes
The note with it: HLM.
Source text: as §1
Imidazole (and benzimidazole) containing drugs are ubiquitous in pharmacological practice; however, drug-drug interactions (DDI) have been observed with some imidazole-containing classes, such as the antifungal azoles typified by ketoconazole. It is believed that the imidazole moiety accounts for their ability to inhibit CYP3A, the major DDI enzyme that metabolizes up to 50% of common drugs. The compounds of the disclosure incorporate an imidazole moiety attached to a pyridine ring via the imidazole C-2. They all share an imidazo-hydroxypyridine theme that can bind redox metal ions, while differing in the nature of the X side-chain. The potential of the compounds of the disclosure for DDI was evaluated by screening their inhibition of CYP3A.
Two studies were conducted in human liver microsomes (HLM). Lead candidate PTG-630 was tested using the Eurofins G232 panel (Drug Metab Dispos. 2001 January; 29(1):23-9), where inhibition was measured against seven CYP enzymes; CYP3A4 was tested using two different substrates, midazolam and testosterone. In a second study, inhibition of CYP3A4 (midazolam substrate only) was compared for 8 compounds of interest. The test protocol involved one-point measurements in duplicate, where inhibition was measured at a fixed 10 μM concentration of candidate inhibitors. In all cases, the substrate for each CYP enzyme was at a concentration equal to its specific Km value that was independently obtained from an 8-point dose-response study. Based on the observed value for percent inhibition for each test compound, we calculated of an IC50 assuming a competitive mode of inhibition. If percent inhibition for an inhibitor at a concentration of [I] is denoted by P, then: IC50=[I]*(100−P)/P In the single-point assay, [I] is 10 μM. If measured inhibition is 10%, then IC50=10*(100-10)/10=90 μM. […]

A further data set relates to seven CYP enzymes. The experiment in a line: Eurofins G232 panel, CYP inhibition in human liver microsomes. The following applies: HLM, 10 μM. As for the experimental part:
as §2

T5 sequence (P08684 2-503): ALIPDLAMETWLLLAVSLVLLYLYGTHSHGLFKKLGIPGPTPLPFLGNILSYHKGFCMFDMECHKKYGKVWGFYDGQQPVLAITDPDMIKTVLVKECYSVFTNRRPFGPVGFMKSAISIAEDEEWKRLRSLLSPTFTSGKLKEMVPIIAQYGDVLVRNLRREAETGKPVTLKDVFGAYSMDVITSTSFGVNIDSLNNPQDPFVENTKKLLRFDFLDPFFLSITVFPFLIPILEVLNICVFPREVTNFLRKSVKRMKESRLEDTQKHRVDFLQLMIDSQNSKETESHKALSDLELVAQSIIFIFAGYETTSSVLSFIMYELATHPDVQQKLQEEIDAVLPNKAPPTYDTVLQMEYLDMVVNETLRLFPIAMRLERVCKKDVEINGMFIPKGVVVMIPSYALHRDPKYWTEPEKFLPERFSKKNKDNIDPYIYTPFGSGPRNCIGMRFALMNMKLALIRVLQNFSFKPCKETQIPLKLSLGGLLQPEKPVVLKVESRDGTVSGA
T4 sequence (P33261 whole entry): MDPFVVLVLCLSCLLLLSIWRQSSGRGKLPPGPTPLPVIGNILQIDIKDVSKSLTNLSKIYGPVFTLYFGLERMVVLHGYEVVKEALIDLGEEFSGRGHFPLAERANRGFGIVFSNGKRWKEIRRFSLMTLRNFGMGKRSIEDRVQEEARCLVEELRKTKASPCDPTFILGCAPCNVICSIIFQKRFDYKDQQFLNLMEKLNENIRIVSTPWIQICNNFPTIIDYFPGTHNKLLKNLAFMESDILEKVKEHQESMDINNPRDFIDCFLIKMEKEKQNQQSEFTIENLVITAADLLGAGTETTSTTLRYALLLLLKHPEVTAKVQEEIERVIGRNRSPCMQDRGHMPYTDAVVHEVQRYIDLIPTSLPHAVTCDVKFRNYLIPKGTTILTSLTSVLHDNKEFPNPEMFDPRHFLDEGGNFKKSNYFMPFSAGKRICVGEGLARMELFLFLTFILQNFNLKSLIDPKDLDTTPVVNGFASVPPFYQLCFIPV

Broadly, the IC50 is the concentration at which inhibition is half-maximal. As to `Cc1ncc(CN2CCOCC2)c(-c2ncc[nH]2)c1O` [PTG-630], the IC50 at CYP1A (phenacetin, from one-point % inhibition at 10 μM, IC50=[I]*(100−P)/P, read-out: Estimated IC50) was 52.1 µM; against CYP2B6, 213 µM; against CYP2C8, 37 µM; on CYP2C19 (omeprazole, from one-point % inhibition at 10 μM, IC50=[I]*(100−P)/P, read-out: Estimated IC50), 26.4 µM; on CYP3A (CYP3A, testosterone, from one-point % inhibition at 10 μM, IC50=[I]*(100−P)/P, read-out: Estimated IC50), 631 µM. In addition, the P % inhib is 16.1% at CYP1A (substrate phenacetin at Km, Inhib Conc. 1.0E−05 M); 4.5% at CYP2B6; 21.3% at CYP2C8; 27.5% on CYP2C19 (substrate omeprazole at Km, Inhib Conc. 1.0E−05 M); 1.56% at CYP3A (CYP3A, substrate testosterone at Km, Inhib Conc. 1.0E−05 M). In addition, the “CYP3A inhibition using testosterone as substrate (in words)” value on CYP3A (10 μM) was “very weak inhibition”. The “CYP inhibition (in words)” value in the data set on seven CYP enzymes is reported as “weak to undetectable”.
